Laboratory results taken from US9131694B2, “Insecticidal pyridine compounds” (Dow AgroSciences, LLC, priority 2009, dated 2015).

Assays:
[1] = system: Beet Armyworm (Spodoptera exigua); experiment: Insecticidal test for beet armyworm, treated lepidopteran diet; type: in vivo; settings: 2000 ppm test solution, 50 μL per well on diet (50 g/cm^2 dose), second-instar larvae, observed 2 and 5 days after treatment
Description: Insecticidal Test for Beet Armyworm (Spodoptera exigua). To prepare test solution, the test compound was formulated at 2000 ppm solution in 2 mL of 9 acetone: 1 tap water. 50 μL of the test solution ([…] dose for each well) was pipetted upon the surface of 1 mL of lepidopteran diet (Southland Multi-Species Lepidopteran Diet) contained in each of eight wells per insect species (one well=1 replication). A second-instar beet armyworm was placed upon the treated diet in each well (one insect per well) once the solvent had air-dried. Trays containing the treated diet and larvae were covered and then held in a growth chamber at 25° C., 50-55% RH, and 16 hr light:8 hr dark for 5 days. Observation were conducted 2 and 5 days after treatment and infestation to score the number of dead insects per 8-well treatment. The results of this test are set forth in the column labelled “Beet Armyworm” in Table 1 below, in which letter designations represent ranges of percent control as set forth above.

[2] = system: Green Peach Aphid (Myzus persicae); experiment: Insecticidal test for green peach aphid in foliar spray assay on cabbage seedlings; type: in vivo; settings: 200 ppm foliar spray on infested cabbage seedlings, graded after three days
Description: Insecticidal Test for Green Peach Aphid (Myzus persicae) in Foliar Spray Assay Cabbage seedlings grown in 3-inch pots, with 2-3 small (3-5 cm) true leaves, were used as test substrate. The seedlings were infested with 20-50 green peach aphids (wingless adult and nymph) 1-2 days prior to chemical application. Four seedlings were used for each treatment. Selected compounds (2 mg), many of which are described above, were dissolved in 2 ml of acetone:methanol (1:1) solvent, forming stock solutions of 1000 ppm. The stock solutions were diluted 5× with 0.025% Tween 20 in H2O to obtain a solution at 200 ppm. A hand-held Devilbiss aspirator sprayer was used for spraying a solution to both sides of cabbage leaves until runoff. Reference plants (solvent check) were sprayed with the diluent only. Treated plants were held in a holding room for three days at approximately 23° C. and 40% relative humidity prior to grading. Evaluation was conducted by counting the number of live aphids per plant under a microscope. Insecticidal activity was measured by using Abbott's correction formula: Corrected % Control=100*(X−Y)/X • where • X=No. of live aphids on solvent check plants • Y=No. of live aphids on treated plants The results of this test are set forth in the column labelled “Green Peach Aphid” in Table 1 below, in which letter designations represent ranges of percent control as follows: • A=80-100% control • B=60-79% control • C=40-59% control • D=20-39% control • E=0-19% control

SMILES | Beet Armyworm percent control [1] | Green Peach Aphid percent control (Abbott corrected % control) [2]
FC(F)(F)c1cc(-n2c(-c3ccccn3)nc3ccccc32)nc(Cl)c1Cl | D (D=20-39% control) | D (D=20-39% control)
FC(F)(F)c1cc(N2CCCC2c2ccccn2)nc(Cl)c1Br (stereo not drawn) | E (E=0-19% control) | D (D=20-39% control)
FC(F)(F)c1cc(N2CCCC2c2ccccn2)ncc1Cl (stereo not drawn) | D (D=20-39% control) | E (E=0-19% control)
FC(F)(F)c1c(Cl)cnc(N2CCCC2c2ccccn2)c1Cl (stereo not drawn) | B (B=60-79% control) | E (E=0-19% control)
FC(F)(F)c1cc(N2CCCC2c2ccccn2)nc(Cl)c1Cl (stereo not drawn) [Compound 1, 6-[2-(2-Pyridyl)-1-pyrrolidinyl]-4-trifluoromethyl-2,3-dichloropyridine] | B (B=60-79% control) | A (A=80-100% control)
FC(F)(F)c1cc(Cl)nc(N2CCCC2c2ccccn2)c1Cl (stereo not drawn) [Compound 2, 6-[2-(2-pyridyl)-1-pyrrolidinyl]-4-trifluoromethyl-2,5-dichloropyridine] | B (B=60-79% control) | C (C=40-59% control)
FC(F)(F)c1cc(N2CCCCC2c2ccccn2)nc(Cl)c1Cl (stereo not drawn) [Compound 6] | A (A=80-100% control) | D (D=20-39% control)
C[Si](C)(C)c1c(C(F)(F)F)cc(N2CCCC2c2ccccn2)nc1Cl (stereo not drawn) [Compound 10] | E (E=0-19% control) | E (E=0-19% control)
CC(C)C1COC(c2ccccn2)N1c1cc(C(F)(F)F)c(C#N)c(Cl)n1 (stereo not drawn) [Compound 12, 2-chloro-6-[4-isopropyl-2-(2-pyridyl)oxazolidin-3-yl]-4-(trifluoromethyl)pyridine-3-carbonitrile] | E (E=0-19% control) | D (D=20-39% control)
CC1COC(c2ccccn2)N1c1cc(C(F)(F)F)c(C#N)c(Cl)n1 (stereo not drawn) [Compound 16, 2-chloro-6-[4-methyl-2-(2-pyridyl)oxazolidin-3-yl]-4-(trifluoromethyl)pyridine-3-carbonitrile] | E (E=0-19% control) | E (E=0-19% control)
N#Cc1c(C(F)(F)F)cc(N2C(c3ccccc3)COC2c2ccccn2)nc1Cl (stereo not drawn) [Compound 18, 2-chloro-6-[4-phenyl-2-(2-pyridyl)oxazolidin-3-yl]-4-(trifluoromethyl)pyridine-3-carbonitrile] | E (E=0-19% control) | E (E=0-19% control)
CCC1CN(c2cc(C(F)(F)F)c(C#N)c(Cl)n2)C(c2ccccn2)O1 (stereo not drawn) [Compound 19, 2-Chloro-6-[5-ethyl-2-(2-pyridyl)oxazolidin-3-yl]-4-(trifluoromethyl)pyridine-3-carbonitrile] | C (C=40-59% control) | C (C=40-59% control)
